Measurements from the supplement of paper PMC11061612.

How the values were obtained:
Assay in all cases: combination Emax (second highest fraction inhibited in the dose matrix, 72 h); higher = more inhibition; extreme values may be limits of the assay
42-MG-BA (Glioblastoma) = tested on: 42-MG-BA (Glioblastoma)
Method in brief: (§1)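 Cell lines in DMEM/F12 or RPMI with 10% FBS were plated in 1536-well plates, held 24 hours at 37°C, 5% CO2, then given two-drug dose matrices for 72 hours (DMSO typically 0.2%). Viability was read by CellTiter-Glo 2.0 luminescence and scaled as inhibition from 0 (vehicle wells) to 1 (blank wells). Combination Emax is the second-highest inhibition in the matrix; Bliss excess is observed combination effect minus expected EA + EB − EA·EB, EA and EB being single-agent effects.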

[1] = tested on: CCRF-CEM (T-Lymphoblastic Leukemia)
Method in brief: as §1

[2] = tested on: COLO-205 (Colorectal Carcinoma)
Method in brief: as §1

[3] = tested on: Calu-3 (Lung Adenocarcinoma)
Method in brief: as §1

[4] = tested on: Daoy (Other Solid Carcinomas)
Method in brief: as §1

[5] = tested on: DoTc2-4510 (Cervical Carcinoma)
Method in brief: as §1

ES4 (Ewing's Sarcoma) = tested on: ES4 (Ewing's Sarcoma)
Method in brief: as §1

[6] = tested on: HCC-78 (Lung Adenocarcinoma)
Method in brief: as §1

[7] = tested on: HCC1806 (Breast Carcinoma)
Method in brief: as §1

[8] = tested on: KP-1N (Pancreatic Carcinoma)
Method in brief: as §1

[9] = tested on: LU-135 (Small Cell Lung Carcinoma)
Method in brief: as §1

[10] = tested on: ME-1 (Acute Myeloid Leukemia)
Method in brief: as §1

NB10 (Neuroblastoma) = tested on: NB10 (Neuroblastoma)
Method in brief: as §1

[11] = tested on: NCI-H2085 (Non-Small Cell Lung Carcinoma)
Method in brief: as §1

[12] = tested on: Ramos-2G6-4C10 (Burkitt's Lymphoma)
Method in brief: as §1

T98G (Glioblastoma) = tested on: T98G (Glioblastoma)
Method in brief: as §1

[13] = tested on: TCCSUP (Bladder Carcinoma)
Method in brief: as §1

[14] = tested on: TE-15 (Esophageal Squamous Cell Carcinoma)
Method in brief: as §1

[15] = tested on: TE-9 (Esophageal Squamous Cell Carcinoma)
Method in brief: as §1

## Cc1cc2ncnn2cc1Nc1ncc2c(n1)n(C1CCOCC1)c(=O)n2C [AZD7648] + CCN(CCO)CCCOc1ccc2c(Nc3cc(CC(=O)Nc4cccc(F)c4)[nH]n3)ncnc2c1 [AZD2811] (first compound max 10 µM, 7x7, partner max 1 µM)
42-MG-BA (Glioblastoma)
  combination Emax: 0.472
[1]
  combination Emax: 1
[2]
  combination Emax: 0.897
[3]
  combination Emax: 0.235
[4]
  combination Emax: 0.445
[5]
  combination Emax: 0.301
ES4 (Ewing's Sarcoma)
  combination Emax: 0.279
[6]
  combination Emax: 0.342
[7]
  combination Emax: 0.281
[8]
  combination Emax: 0.134
[9]
  combination Emax: 0.893
[10]
  combination Emax: 0.27
NB10 (Neuroblastoma)
  combination Emax: 0.335
[11]
  combination Emax: 0.717
[12]
  combination Emax: 0.789
T98G (Glioblastoma)
  combination Emax: 0.467
[13]
  combination Emax: 0.387
[14]
  combination Emax: 0.283
[15]
  combination Emax: 0.234

## Cc1cc2ncnn2cc1Nc1ncc2c(n1)n(C1CCOCC1)c(=O)n2C [AZD7648] + CN(C)CCCOc1ccc(-c2ccc3ncc4c(c3c2)n(C2CCOCC2)c(=O)n4C)cn1 [AZD0156] (first compound max 10 µM, 7x7, partner max 1 µM)
42-MG-BA (Glioblastoma)
  combination Emax: 0.398
[1]
  combination Emax: 0.521
[2]
  combination Emax: 0.39
[3]
  combination Emax: 0.215
[4]
  combination Emax: 0.313
[5]
  combination Emax: 0.26
ES4 (Ewing's Sarcoma)
  combination Emax: 0.0963
[6]
  combination Emax: 0.263
[7]
  combination Emax: 0.271
[8]
  combination Emax: 0.188
[9]
  combination Emax: 0.172
[10]
  combination Emax: 0.213
NB10 (Neuroblastoma)
  combination Emax: 0.307
[11]
  combination Emax: 0.234
[12]
  combination Emax: 0.292
T98G (Glioblastoma)
  combination Emax: 0.266
[13]
  combination Emax: 0.197
[14]
  combination Emax: 0.236
[15]
  combination Emax: 0.183

## Cc1cc2ncnn2cc1Nc1ncc2c(n1)n(C1CCOCC1)c(=O)n2C [AZD7648] + C[C@@H]1COCCN1C2=NC(=NC(=C2)C3(CC3)[S@](=N)(=O)C)C4=C5C=CNC5=NC=C4 [AZD6738] (first compound max 10 µM, 7x7, partner max 10 µM)
42-MG-BA (Glioblastoma)
  combination Emax: 0.692
[1]
  combination Emax: 0.997
[2]
  combination Emax: 0.266
[3]
  combination Emax: 0.291
[4]
  combination Emax: 0.784
[5]
  combination Emax: 0.746
ES4 (Ewing's Sarcoma)
  combination Emax: 0.686
[6]
  combination Emax: 0.635
[7]
  combination Emax: 0.928
[8]
  combination Emax: 0.252
[9]
  combination Emax: 0.552
[10]
  combination Emax: 0.378
NB10 (Neuroblastoma)
  combination Emax: 0.801
[11]
  combination Emax: 0.608
[12]
  combination Emax: 0.944
T98G (Glioblastoma)
  combination Emax: 0.859
[13]
  combination Emax: 0.569
[14]
  combination Emax: 0.713
[15]
  combination Emax: 0.286

## Cc1cc2ncnn2cc1Nc1ncc2c(n1)n(C1CCOCC1)c(=O)n2C [AZD7648] + O=C(c1cc(Cc2n[nH]c(=O)c3ccccc23)ccc1F)N1CCN(C(=O)C2CC2)CC1 [Olaparib] (first compound max 10 µM, 7x7, partner max 10 µM)
42-MG-BA (Glioblastoma)
  combination Emax: 0.464
[1]
  combination Emax: 0.454
[2]
  combination Emax: 0.0328
[3]
  combination Emax: 0.0691
[4]
  combination Emax: 0.357
[5]
  combination Emax: 0.277
ES4 (Ewing's Sarcoma)
  combination Emax: 0.572
[6]
  combination Emax: 0.242
[7]
  combination Emax: 0.142
[8]
  combination Emax: 0.257
[9]
  combination Emax: 0.394
[10]
  combination Emax: 0.172
NB10 (Neuroblastoma)
  combination Emax: 0.426
[11]
  combination Emax: 0.036
[12]
  combination Emax: 0.169
T98G (Glioblastoma)
  combination Emax: 0.203
[13]
  combination Emax: 0.134
[14]
  combination Emax: 0.182
[15]
  combination Emax: 0.119
